# Results: publication PMC11990924, “Inhibition of Tyrosinase and Melanogenesis by Carboxylic Acids: Mechanistic Insights and Safety Evaluation” (Molecules, 2025)
# System: B16-F10 cells
# Assay: Proteomic analysis of B16-F10 cells (DIA mass spectrometry)
# Format: cell-based, mouse
# Conditions: 6 mM vs control; Table S4
# Description: B16-F10 cells were treated with various concentrations of carboxylic acids following the same culture protocol used for melanin inhibition assays. After treatment, the cells were collected and submitted to Shanghai Zhongke Xinming Biotechnology Co., Ltd. (Shanghai, China) for proteomics analysis. The collected cells were lysed with an appropriate volume of SDT lysis buffer (4% SDS, 100 mM Tris-HCl, pH 7.6) to extract proteins. DTT was added to reduce disulfide bonds, followed by incubation at room temperature for 1 h. Subsequently, iodoacetamide was added, and the mixture was reacted in the dark at room temperature for 30 min. The proteins were then digested with trypsin overnight. The resulting peptide fragments were desalted using a C18 cartridge. After freeze-drying, the peptides were resuspended in 40 μL of 0.1% formic acid solution, and the peptide concentration was determined by measuring the absorbance at 280 nm. An appropriate amount of internal reference for targeted proteomics (iRT) standard peptides was added to each sample for data-independent acquisition (DIA) mass spectrometry analysis. Chromatographic separation was performed using a nanoflow Evosep One system. The separated samples were analyzed by DIA mass spectrometry using a timsTOF Pro mass spectrometer (Bruker Daltonics, Bremen, Germany). Detection was conducted in positive-ion mode, with MS and MS/MS scanning ranges set from 100 to 1700 m/z. MS2 data acquisition was performed in DIA mode, with four TIMS scan windows, each accumulating for 100 ms. In PASEF mode, the collision energy varied linearly with ion mobility (1/K0), ranging from 20 to 59 eV for ions with 1/K0 values between 0.85 and 1.30 Vs/cm^2. The DIA data were processed using Spectronaut 19 software with the following parameter settings: retention time prediction type set to dynamic iRT, interference correction on MS2 level enabled, cross-run normalization enabled, maximum missed cleavage sites set to 2, fixed modification set to Carbamidomethyl (C), and variable modifications set to Oxidation (M) and Acetyl (Protein N-term). All results were filtered with a Q-value cutoff of 0.01, corresponding to a false discovery rate (FDR) of less than 1%. The target protein set was annotated using Blast2GO (version BLASTP 2.8.0+). The process included four steps: sequence alignment (Blast), GO mapping, GO annotation, and additional annotation augmentation using InterProScan. Using the KOBAS 3.0 software, KEGG pathway annotation was performed on the target protein set. Fisher’s exact test was employed to compare the distribution of GO categories in the target protein set and the overall protein set, thereby conducting enrichment analysis of the GO annotations in the target protein set. The proteomics dataset generated in this study has been made publicly available through the PRIDE ProteomeXchange Consortium with the dataset identifier PXD061919.
smiles,measurement,value
O=C(O)CC(O)C(=O)O (stereo not shown) [malic acid],Abhd14a protein fold change,0.4947
same,Acvr1b protein fold change,0.348
same,Adgrg1 protein fold change,0.3255
same,Aplp2 protein fold change,0.1925
same,App protein fold change,0.309
same,Arrdc3 protein fold change,0.2723
same,Atp6ap2 protein fold change,0.4615
same,Atxn2l protein fold change,0.3743
same,Bace2 protein fold change,0.2949
same,CUB domain-containing protein (Q3TD85) fold change,0.319
same,Cd151 protein fold change,0.3796
same,Cox6a1 protein fold change,2.331
same,Cpe protein fold change,0.425
same,Cryab protein fold change,0.4352
same,Ctns protein fold change,0.4962
same,Cxne protein fold change,0.4043
same,Cyp51a1 protein fold change,0.4596
same,Dct protein fold change,0.453
same,Ddr1 protein fold change,0.4956
same,Dgcr2 protein fold change,0.4757
same,Dhrsx protein fold change,0.4224
same,E2f5 protein fold change,2.052
same,Eng protein fold change,0.4971
same,Fam174b protein fold change,0.4334
same,Fau protein fold change,4.207
same,Fip1l1 protein fold change,0.4619
same,Fth1 protein fold change,2.2552
same,Ftl1 protein fold change,2.521
same,Ginm1 protein fold change,0.2408
same,Globin family profile domain-containing protein (Q8BPF4) fold change,0.4868
same,Gpnmb protein fold change,0.4267
same,H1-0 protein fold change,2.091
same,H1-1 protein fold change,2.387
same,Haghl protein fold change,2.0913
same,Hbbt1 protein fold change,0.3537
same,Hist2h2aa1 protein fold change,5.559
same,Hspb1 protein fold change,0.432
same,Ifitm2 protein fold change,0.2473
same,Ifitm3 protein fold change,0.405
same,Ifngr1 protein fold change,0.477
same,Il10rb protein fold change,0.279
same,Il17ra protein fold change,0.4348
same,Itih3 protein fold change,0.2609
same,Itm2b protein fold change,0.1357
same,Itm2c protein fold change,0.2222
same,Lama2 protein fold change,2.748
same,Laptm4b protein fold change,0.1099
same,Ldlr protein fold change,0.3286
same,Lgmn protein fold change,0.3573
same,Lmbrd1 protein fold change,0.4382
same,Map1lc3b protein fold change,0.4627
same,Mapre2 protein fold change,0.4775
same,Mfap3 protein fold change,0.2203
same,Mfge8 protein fold change,0.4888
same,Mlana protein fold change,0.1802
same,Ndfip1 protein fold change,0.1482
same,Nrp1 protein fold change,0.4816
same,Nrp2 protein fold change,0.3963
same,Nus1 protein fold change,0.4939
same,Pbx1 protein fold change,2.038
same,Pcdhgb2 protein fold change,0.2826
same,Peli1 protein fold change,0.4419
same,Plekhb2 protein fold change,0.4812
same,Pmel protein fold change,0.458
same,Ppp1r12b protein fold change,2.498
same,Psap protein fold change,0.4952
same,Ptprs protein fold change,0.4661
same,Pwwp3a protein fold change,2.511
same,Rhob protein fold change,0.4341
same,Rhoj protein fold change,0.4834
same,Rnf130 protein fold change,0.4325
same,Sdcbp protein fold change,0.4716
same,Sema4b protein fold change,0.4477
same,Sema6d protein fold change,0.4605
same,Sgce protein fold change,0.2346
same,Sh3bp2 protein fold change,0.3699
same,Slc4a2 protein fold change,0.4141
same,Slc24a5 protein fold change,0.4133
same,Slc38a2 protein fold change,0.2034
same,Slc45a2 protein fold change,0.4213
same,Sppl2b protein fold change,0.4857
same,Spring1 protein fold change,0.2636
same,Syt4 protein fold change,0.1657
same,Tax1bp1 protein fold change,0.4715
same,Tcf7l1 protein fold change,0.4286
same,Tgfbr1 protein fold change,0.4711
same,Tk1 protein fold change,2.015
same,Tmem59 protein fold change,0.1062
same,Tmem176a protein fold change,0.2285
same,Tnfrsf1a protein fold change,0.4638
same,Tpp1 protein fold change,0.3033
same,Tspan3 protein fold change,0.3098
same,Tspan6 protein fold change,0.466
same,Tspan10 protein fold change,0.2722
same,Tspan14 protein fold change,0.4171
same,Tyr protein fold change,0.3761
same,Tyrp1 protein fold change,0.2755
same,Ubl3 protein fold change,0.2044
same,Wfdc3 protein fold change,0.3403
same,il6st protein fold change,0.3637
